Target: T1, Type I 5α-reductase (Homo sapiens, UniProt P18405)
T1 construct: Scalp punch biopsies from graft recipient sites were obtained; from tissue; host or cells: human scalp skin (punch biopsies from hair transplant procedures); 100,000 x g pellet of the homogenate
T1 sequence (P18405 1-259): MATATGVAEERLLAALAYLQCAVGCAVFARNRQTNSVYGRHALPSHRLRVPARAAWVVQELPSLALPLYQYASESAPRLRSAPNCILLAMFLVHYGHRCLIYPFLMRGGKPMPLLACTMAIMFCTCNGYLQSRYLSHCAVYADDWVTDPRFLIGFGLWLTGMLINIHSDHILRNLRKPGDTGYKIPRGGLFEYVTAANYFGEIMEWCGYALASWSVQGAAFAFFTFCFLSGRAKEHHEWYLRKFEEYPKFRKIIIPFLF
Assay: Human Type I steroid 5α-reductase homogenate assay (conversion of [3H]-testosterone to [3H]-DHT and other 5α-reduced metabolites)
Assay type: biochemical
Details: 0.3 µM concentration of compound, compared to control reaction mixtures
Protocol: Methodology of Human Type I Steroid 5α-Reductase Assays
Preparation of Type I 5α-Reductase from Human Scalp: Scalp punch biopsies from graft recipient sites were obtained, following the proper Informed Consent and Institutional Review Board guidelines, from human hair transplant procedures immediately after surgery and were frozen on dry ice and stored at -80°C. Approximately 60-75 punches from one surgical procedure were used to generate an enzyme preparation. The subcutaneous tissue was cut away and discarded. The skin was frozen with liquid nitrogen and pulverized to powder. The powder was homogenized in 30 mL of ice-cold buffer (20 mM Tris-HCl, pH 7.5) using a Brinkmann Polytron (Westbury, NY) with a PTA 10-S probe and a setting of 7. The homogenization procedure consisted of four 15 second pulses. Connective tissue was cleared from the probe with forceps between pulses. The homogenate was then filtered through cheese cloth and the filtrate centrifuged at 100,000 x g for one hour in a Beckman L8-60M ultracentrifuge. The pellet was resuspended by homogenization with a Dounce homogenizer using the same buffer solution. An aliquot was taken for protein determination by the Lowry method, Lowry, et al., Protein Measurement with the Folin Phenol Reagent, J. Biol. Chem., 193, 265-75 (1951). Aliquots of the enzyme preparation were stored at -80° until use. Human 5α-Reductase Homogenate Assay: This enzyme assay is based on the conversion of [^3H]-testosterone to [^3H]-5α -dihydrotestosterone (DHT) and other 5α-reduced metabolites. […] In a total volume of 1.0 mL, the Type I assay contained 2.6 µCi [^3H]-testosterone (50 nM), 500 µM of reduced nicotine adenine dinucleotide phosphate, 100 mM Tris-HCl, pH 7.5, (in Type II assays, 40 mM sodium acetate at pH 5.5 is used instead of Tris-HCl) and test compounds as indicated. Test compounds were added in 20 µL of dimethylsulfoxide (20 µL of dimethylsulfoxide was added to blanks and controls). The reaction was initiated by the addition of 0.5 mg of Type I 5α-reductase. The reaction mixture was incubated at 25° for 180 min, and terminated by the addition of 1 mL ice-cold stopping solution. The stopping solution contained 40 µM each of non-radioactive testosterone, DHT, androstenedione, androstanedione, androsterone, androstan-3β17β- diol, and androstan-3α,17β-diol. The samples were prepared for high performance liquid chromatography by solid phase extraction. Disposable solid matrix extraction columns (C-18 reversed phase, 6 mL, 500 mg; Bond Elut™ from Analytichem International; Harbor City, CA) were conditioned by washing with 5 mL of methanol followed by 5 mL of deionized water. The reaction mixtures were then applied to the columns. The columns were subsequently washed with 5 mL of acetone:water (1:4), followed by 0.3 mL of methanol. The samples were then eluted with 3 mL of methanol and collected in 20 mL scintillation vials. Three mL of water was then added to each scintillation vial. The solutions were then transferred to tubes and centrifuged for 30 min at 1000 x g to remove any particulate material before chromatography. The [^3H]-testosterone substrate and its metabolites were separated by chromatography using a C-18 reversed phase column (Beckman Ultrasphere 5µm spherical 80A pore, part no. 235329, 4.6 mm i.d. x […]) with an isocratic mobile phase (46 water: 46 methanol: 8 tetrahydrofuran by volume). The column temperature was maintained at 35° and the flow rate was 1.5 mL/min. A 400 µL aliquot was injected onto the column and radioactivity was determined using a Beckman 171 in-line flow radioisotope detector in conjunction with Rainin Dynamax™ software and a Macintosh computer. The flow rate of the Atomflow™ scintillation fluid was 4.5 mL / min.

In the case of “(+)-(4aR)-(10bR)-4-methyl-8-benzyloxycarbonyl-10b-methyl-1,2,3,4,4a,5,6,10b-octahydrobenzo[f]quinolin-3-one [Example 144]”, the “percent inhibition of Type I 5AR” value is reported as 90%.
